Laboratory results: patent US20030216444A1, “Benzoylpyridine derivative or its salt, fungicide containing it as an active ingredient, its production process and intermediate for producing it” (priority 2000, published 2003)

| melting point | Structure (SMILES) |
| --- | --- |
| 81 to 83 °C | COc1cc(C)c(C(=O)c2c(C(F)(F)F)cc(Cl)nc2Cl)c(OC)c1OC [compound No. 3, 3-(2,3,4-trimethoxy-6-methylbenzoyl)-2,6-dichloro-4-trifluoromethylpyridine] |
| 59 to 62 °C | COc1cc(C)c(C(=O)c2cnccc2C(F)(F)F)c(OC)c1OC [compound No. 7, 3-(2,3,4-trimethoxy-6-methylbenzoyl)-4-trifluoromethylpyridine] |
| 110 to 112 °C | COc1cc(C)c(C(=O)c2c(C(F)(F)F)ccnc2Cl)c(OC)c1OC [compound No. 11, 3-(2,3,4-trimethoxy-6-methylbenzoyl)-2-chloro-4-trifluoromethylpyridine] |
| 116 to 117 °C | COc1cc(C)c(C(=O)c2c(C(F)(F)F)ccnc2Cl)cc1OCc1ccccc1 [compound No. 27, 3-(5-benzyloxy-4-methoxy-2-methylbenzoyl)-2-chloro-4-trifluoromethylpyridine] |
| 125 to 127 °C | COc1cc(C)c(C(=O)c2c(C(F)(F)F)ccnc2OC)cc1OC [compound No. 32, 3-(4,5-dimethoxy-2-methylbenzoyl)-2-methoxy-4-trifluoromethylpyridine] |
| 109 to 112 °C | COc1cc(C)c(C(=O)c2c(Cl)nc(Cl)c(C(C)=O)c2C(F)(F)F)c(OC)c1OC [compound No. 62, 5-(2,3,4-trimethoxy-6-methylbenzoyl)-3-acetyl-2,6-dichloro-4-trifluoromethylpyridine] |
| 106 to 109 °C | COc1cc(C)c(C(=O)c2c(Cl)cnc(Cl)c2C(F)(F)F)c(OC)c1OC [compound No. 90, 4-(2,3,4-trimethoxy-6-methylbenzoyl)-2,5-dichloro-3-trifluoromethylpyridine] |
| 75 to 77 °C | COc1cc(C)c(C(=O)c2c(Cl)cncc2C(F)(F)F)c(OC)c1OC [compound No. 102, 4-(2,3,4-trimethoxy-6-methylbenzoyl)-3-chloro-5-trifluoromethylpyridine] |
| 103 to 106 °C | COc1cc(C)c(C(=O)c2c(OC)cncc2C(F)(F)F)c(OC)c1OC [compound No. 122, 4-(2,3,4-trimethoxy-6-methylbenzoyl)-3-methoxy-5-trifluoromethylpyridine] |
| 117 to 119 °C | COc1cc(C)c(C(=O)c2c(OC)cnc(Cl)c2C(F)(F)F)c(OC)c1OC [compound No. 123, 4-(2,3,4-trimethoxy-6-methylbenzoyl)-2-chloro-3-trifluoromethyl-5-methoxypyridine] |
| 145 to 147 °C | COc1cc(C)c(C(=O)c2c(OC)cnc(Br)c2C(F)(F)F)c(OC)c1OC [compound No. 124, 4-(2,3,4-trimethoxy-6-methylbenzoyl)-2-bromo-3-trifluoromethyl-5-methoxypyridine] |
| 60 to 61 °C | COc1cc(C)c(C(=O)c2c(Cl)cnc(Cl)c2Cl)c(OC)c1OC [compound No. 186, 4-(2,3,4-trimethoxy-6-methylbenzoyl)-2,3,5-trichloropyridine] |
| 109 to 111 °C | COc1cc(C)c(C(=O)c2c(Cl)cncc2Cl)c(OC)c1OC [compound No. 191, 4-(2,3,4-trimethoxy-6-methylbenzoyl)-3,5-dichloropyridine] |
| 98 to 99 °C | COc1cc(C)c(C(=O)c2c(OC)cnc(Cl)c2Cl)c(OC)c1OC [compound No. 193, 4-(2,3,4-trimethoxy-6-methylbenzoyl)-2,3-dichloro-5-methoxypyridine] |
| 88 to 93 °C | COc1cc(C)c(C(=O)c2c(C)cncc2Br)c(OC)c1OC [compound No. 228, 4-(2,3,4-trimethoxy-6-methylbenzoyl)-3-bromo-5-methylpyridine] |
| 97 to 99 °C | COc1cc(C)c(C(=O)c2c(OC)cnc(Br)c2Cl)c(OC)c1OC [compound No. 245, 4-(2,3,4-trimethoxy-6-methylbenzoyl)-2bromo-3-chloro-5-methoxypyridine] |
